Measured values: patent US12116358B2, “Substituted indoles and methods of use thereof” (EPIZYME, INC., priority 2018, dated 2024)
Read-outs that look alike come from different tables or passages of the source.

Tests used:
H3K36me3 in A549 cells = test: In-Cell Western (ICW) assay of SETD2 inhibitors (A549 assay); assay type: cell-based, human; conditions: A549 cells, read-out: SETD2 A549
In short: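 H3K36me3 In-Cell Western: cells exposed to compound for 3 days at 4,000 cells/well, 37° C. DRAQ5 (1:1000) marked cell number, with 700/800-channel Licor read-out.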

SETD2(1434-1711) = biological target: T1, SETD2(1434-1711) (Homo sapiens, UniProt Q9BYW2); test: SETD2 (1434-1711) assay; assay type: biochemical; conditions: read-out: SETD2 (1434-1711)
T1 construct: SETD2 (1434-1711) Assay; catalogue N/A
T1 sequence (Q9BYW2 1434-1711): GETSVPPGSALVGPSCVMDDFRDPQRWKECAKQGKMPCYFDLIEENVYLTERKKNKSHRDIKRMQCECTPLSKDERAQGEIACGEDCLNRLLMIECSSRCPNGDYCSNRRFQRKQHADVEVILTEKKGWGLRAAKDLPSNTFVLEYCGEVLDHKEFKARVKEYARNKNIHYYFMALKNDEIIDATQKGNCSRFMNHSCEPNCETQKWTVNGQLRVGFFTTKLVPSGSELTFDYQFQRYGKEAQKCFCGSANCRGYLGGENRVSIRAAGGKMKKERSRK

Structure (SMILES)	IC50 (H3K36me3 in A549 cells)	IC50 (SETD2(1434-1711))	IC50 (H3K36me3 in A549 cells; Homo sapiens)
Cc1ccc(F)c2cc(C(=O)Nc3cccc(N4CCOCC4C)c3)[nH]c12 (stereo not drawn) [compound 216]	500 nM	100 nM	–
Cc1ccc(F)c2cc(C(=O)Nc3cc(Cl)cc([C@H]4CC[C@H](N(C)C)CC4)c3)[nH]c12 [compound 339]	–	40 nM	1700 nM
Cc1ccc(F)c2cc(C(=O)NC3CCCC(N4CCC5(CC4)COC(=O)N5)C3)[nH]c12 (stereo not drawn) [compound 895]	–	50 nM	1500 nM
CC(=O)N(CCO)C1CCN([C@H]2CCC[C@@H](NC(=O)c3cc4c(F)ccc(C)c4[nH]3)C2)C1 (stereo partly drawn) [compound 872]	–	100 nM	1200 nM
Cc1ccc(F)c2cc(C(=O)N[C@@H]3CCC[C@@H](N4CCC(N5CCCC5=O)C4)C3)[nH]c12 (stereo partly drawn) [compound 911]	–	1000 nM	> 2000 nM
Cc1ccc(F)c2cc(C(=O)N[C@@H]3CCC[C@@H](N4CCn5ncnc5C4)C3)[nH]c12 [compound 869]	> 2000 nM	6600 nM	–
Cc1cccc2cc(C(=O)NCc3cccc4ccnn34)[nH]c12 [compound 570]	–	15000 nM	> 25000 nM
Cc1ccc(F)c2cc(C(=O)NC(C(N)=O)c3ccccn3)[nH]c12 (stereo not drawn) [compound 503]	14800 nM	9700 nM	–
Cc1ccc(F)c2cc(C(=O)Nc3cccc(N4CCN(C(=O)CF)CC4)c3)[nH]c12 [compound 92]	200 nM	30 nM	–
Cc1cccc2cc(C(=O)NC3CCC(NS(=O)(=O)CCCN)CC3)[nH]c12 (stereo not drawn) [compound 581]	> 25000 nM	28200 nM	–
Cc1ccc(F)c2cc(C(=O)Nc3cccc([C@H]4CC[C@H](N(C)C)CC4)c3)[nH]c12 [compound 68]	200 nM	6 nM	–
CC(=O)N1CCN([C@@H]2CCC[C@@H](NC(=O)c3cc4c(F)ccc(C)c4[nH]3)C2)CC12CC2 [compound 1100]	–	900 nM	> 2000 nM
Cc1cc(CCN2CCN(C)CC2)cnc1C(Cc1ccccc1)NC(=O)c1cc2c(F)ccc(C)c2[nH]1 (stereo not drawn) [compound 258]	–	40 nM	600 nM
CC(=O)N1CCC(C2CCCC(NC(=O)c3cc4c(F)ccc(C)c4[nH]3)C2)CC1 (stereo not drawn) [compound 1124]	800 nM	200 nM	–
Cc1ccc(F)c2cc(C(=O)Nc3cc(F)cc(C4CCN(C5CC(=O)N(C)C5)C4)c3)[nH]c12 (stereo not drawn) [compound 89]	–	30 nM	200 nM
Cc1ccc(C(=O)N2CCNCC2)cc1C(NC(=O)c1cc2cccc(C)c2[nH]1)C1CC1 (stereo not drawn) [compound 583]	–	32400 nM	> 25000 nM
Cc1ccc(F)c2cc(C(=O)NC3CNCCc4ccccc43)[nH]c12 (stereo not drawn) [compound 364]	> 2000 nM	2000 nM	–
Cc1ccc(F)c2cc(C(=O)Nc3cccc(N4CCN(C)CC4)n3)[nH]c12 [compound 344]	1800 nM	200 nM	–
Cc1ccc(F)c2cc(C(=O)NC3CCCC(N4CCCN(C)C(=O)C4)C3)[nH]c12 (stereo not drawn) [compound 370]	> 2000 nM	6800 nM	–
Cc1c(C#N)ccnc1C(NC(=O)c1cc2c(F)ccc(C)c2[nH]1)C1CC1 (stereo not drawn) [compound 432]	–	700 nM	4500 nM
Cc1ccc(F)c2cc(C(=O)NC3CCCN(CC(=O)N(C)C)C3)[nH]c12 (stereo not drawn) [compound 377]	–	> 10000 nM	> 2000 nM
Cc1ccc(F)c2cc(C(=O)Nc3cccc(N(C)C4CCN(C)CC4)c3)[nH]c12 [compound 351]	> 2000 nM	90 nM	–
Cc1cc(OCC(O)CNCc2cccnc2)cnc1C(NC(=O)c1cc2cccc(C)c2[nH]1)C1CC1 (stereo not drawn) [compound 430]	4400 nM	600 nM	–
Cc1ccc(F)c2cc(C(=O)Nc3cccc(C4CCC5C(CCN5C)C4)c3)[nH]c12 (stereo not drawn) [compound 294]	–	30 nM	1100 nM
CCNC(=O)N1CCN(C2CCCC(NC(=O)c3cc4c(F)ccc(C)c4[nH]3)C2)CC1 (stereo not drawn) [compound 948]	100 nM	10 nM	–
Cc1cccc2cc(C(=O)Nc3ccc4ccc(CN5CCN(C)CC5)cc4c3)[nH]c12 [compound 453]	–	700 nM	5800 nM
Cc1ccc(F)c2cc(C(=O)Nc3cccc([C@H]4CCN5C(=O)CC[C@H]5C4)c3)[nH]c12 [compound 90]	200 nM	30 nM	–
Cc1ccc(F)c2cc(C(=O)Nc3cccc(C4CCNC4)c3)[nH]c12 (stereo not drawn) [compound 283]	–	40 nM	1000 nM
COC1CCN(c2cccc(NC(=O)c3cc4c(F)ccc(C)c4[nH]3)c2)CC1 [compound 198]	400 nM	70 nM	–
Cc1ccc(F)c2cc(C(=O)Nc3cccc(C4COCCN4)c3)[nH]c12 (stereo not drawn) [compound 307]	–	200 nM	1200 nM
